In ChEMBL document CHEMBL1949598, “Synthesis, cytostatic activity and ADME properties of C-5 substituted and N-acyclic pyrimidine derivatives” (Bioorg Med Chem Lett, 2012):
Values belong to the compound of their own block, whether it stands above or below them. Calls of active or inactive are those of the source. The rule behind the calls is not given here.

How the values were obtained:
MCF7 [1] = experiment: Cytotoxicity against human MCF7 cells up to 100 uM after 72 hrs by MTT assay; assay type: functional, cell-based
HCT-116 [2] = experiment: Cytotoxicity against human HCT116 cells up to 100 uM after 72 hrs by MTT assay; assay type: functional, cell-based
NCI-H460 [3] = experiment: Cytotoxicity against human H460 cells up to 100 uM after 72 hrs by MTT assay; assay type: functional, cell-based
NCI-H460 [4] = experiment: Cytotoxicity against human H460 cells after 72 hrs by MTT assay; assay type: functional, cell-based; conditions: NCI-H460, 72 h
HCT-116 [5] = experiment: Cell cycle arrest in human HCT116 cells assessed as accumulation of cells at sub-G1 phase at 1 uM after 24 hrs using propidium iodide staining by FACS analysis (reference value: 1.8%); assay type: functional
HCT-116 [6] = experiment: Cell cycle arrest in human HCT116 cells assessed as accumulation of cells at sub-G1 phase at 5 uM after 24 hrs using propidium iodide staining by FACS analysis (reference value: 1.8%); assay type: functional
HCT-116 [7] = experiment: Cell cycle arrest in human HCT116 cells assessed as accumulation of cells at G1 phase at 1 uM after 24 hrs using propidium iodide staining by FACS analysis (reference value: 32.5%); assay type: functional
HCT-116 [8] = experiment: Cell cycle arrest in human HCT116 cells assessed as accumulation of cells at G1 phase at 5 uM after 24 hrs using propidium iodide staining by FACS analysis (reference value: 32.5%); assay type: functional
HCT-116 [9] = experiment: Cell cycle arrest in human HCT116 cells assessed as accumulation of cells at S phase at 1 uM after 24 hrs using propidium iodide staining by FACS analysis (reference value: 50%); assay type: functional
HCT-116 [10] = experiment: Cell cycle arrest in human HCT116 cells assessed as accumulation of cells at S phase at 5 uM after 24 hrs using propidium iodide staining by FACS analysis (reference value: 50%); assay type: functional
HCT-116 [11] = experiment: Cell cycle arrest in human HCT116 cells assessed as accumulation of cells at G2/M phase at 1 uM after 24 hrs using propidium iodide staining by FACS analysis (reference value: 17.4%); assay type: functional
HCT-116 [12] = experiment: Cell cycle arrest in human HCT116 cells assessed as accumulation of cells at G2/M phase at 5 uM after 24 hrs using propidium iodide staining by FACS analysis (reference value: 17.4%); assay type: functional
HCT-116 [13] = experiment: Cell cycle arrest in human HCT116 cells assessed as accumulation of cells at sub-G1 phase at 1 uM after 48 hrs using propidium iodide staining by FACS analysis (reference value: 1.5%); assay type: functional
HCT-116 [14] = experiment: Cell cycle arrest in human HCT116 cells assessed as accumulation of cells at sub-G1 phase at 5 uM after 48 hrs using propidium iodide staining by FACS analysis (reference value: 1.5%); assay type: functional
HCT-116 [15] = experiment: Cell cycle arrest in human HCT116 cells assessed as accumulation of cells at G1 phase at 1 uM after 48 hrs using propidium iodide staining by FACS analysis (reference value: 42.3%); assay type: functional
HCT-116 [16] = experiment: Cell cycle arrest in human HCT116 cells assessed as accumulation of cells at G1 phase at 5 uM after 48 hrs using propidium iodide staining by FACS analysis (reference value: 42.3%); assay type: functional
HCT-116 [17] = experiment: Cell cycle arrest in human HCT116 cells assessed as accumulation of cells at S phase at 1 uM after 48 hrs using propidium iodide staining by FACS analysis (reference value: 31%); assay type: functional
HCT-116 [18] = experiment: Cell cycle arrest in human HCT116 cells assessed as accumulation of cells at S phase at 5 uM after 48 hrs using propidium iodide staining by FACS analysis (reference value: 31%); assay type: functional
HCT-116 [19] = experiment: Cell cycle arrest in human HCT116 cells assessed as accumulation of cells at G2/M phase at 1 uM after 48 hrs using propidium iodide staining by FACS analysis (reference value: 26.6%); assay type: functional
HCT-116 [20] = experiment: Cell cycle arrest in human HCT116 cells assessed as accumulation of cells at G2/M phase at 5 uM after 48 hrs using propidium iodide staining by FACS analysis (reference value: 26.6%); assay type: functional
MDR1 (P-gp), human [21] = experiment: Apparent permeability from apical to basolateral side in MDCK2 cells expressing human MDR1 at 10 uM after 60 mins; assay type: ADME, cell-based, Canis lupus familiaris, MDCK-II; conditions: dog, MDCK-MDR1
MDR1 (P-gp), human [22] = experiment: Apparent permeability from basolateral to apical side in MDCK2 cells expressing human MDR1 at 10 uM after 60 mins; assay type: ADME, cell-based, Canis lupus familiaris, MDCK-II; conditions: dog, MDCK-MDR1
MDR1 (P-gp), human [23] = experiment: Efflux ratio of apparent permeability from apical to basolateral over basolateral to apical side of MDCK2 cells expressing human MDR1 gene; assay type: ADME, cell-based, Canis lupus familiaris, MDCK-II; conditions: dog, MDCK-MDR1
MDR1 (P-gp), human [24] = experiment: Efflux ratio of apparent permeability from apical to basolateral side over basolateral to apical side in MDCK2 cells expressing human MDR1 in presence of P-gp inhibitor elacridar; assay type: ADME, cell-based, Canis lupus familiaris, MDCK-II; conditions: dog, MDCK-MDR1, with elacridar (P-gp inhibitor; concentration not stated)
[25] = Metabolic stability in human plasma assessed as compound remaining at 5 uM after 24 hrs by LC/MS/MS analysis; assay type: ADME, cell-free; conditions: read-out: Stability
[26] = Metabolic stability in rat plasma assessed as compound remaining at 5 uM after 24 hrs by LC/MS/MS analysis; assay type: ADME, cell-free; conditions: read-out: Stability
[27] = Metabolic stability in mouse plasma assessed as compound remaining at 5 uM after 24 hrs by LC/MS/MS analysis; assay type: ADME, cell-free; conditions: read-out: Stability
[28] = Half life in human plasma at 5 uM; assay type: ADME
[29] = Half life in rat plasma at 5 uM; assay type: ADME
[30] = Half life in mouse plasma at 5 uM; assay type: ADME
[31] = Metabolic stability in human liver microsomes assessed as compound remaining at 1 uM after 60 mins by LC/MS/MS analysis; assay type: ADME, Microsome; conditions: read-out: Stability
[32] = Metabolic stability in rat liver microsomes assessed as compound remaining at 1 uM after 60 mins by LC/MS/MS analysis; assay type: ADME, Microsome; conditions: read-out: Stability
[33] = Metabolic stability in mouse liver microsomes assessed as compound remaining at 1 uM after 60 mins by LC/MS/MS analysis; assay type: ADME, Microsome; conditions: read-out: Stability
MCF7 [34] = experiment: cells; conditions: Homo sapiens, MCF7, 72 h
Description: Cytotoxicity against human MCF7 cells after 72 hrs by MTT assay

HCT-116 [35] = experiment: cells; conditions: Homo sapiens, HCT-116, 72 h
[36] = Half life in rat liver microsomes at 1 uM
[37] = Half life in human liver microsomes at 1 uM
[38] = Half life in mouse liver microsomes at 1 uM

SMILES: OCCc1cnc(Cl)nc1Cl
- growth inhibition (GI) (MCF7 [1]): inactive
- growth inhibition (GI) (HCT-116 [2]): inactive
- growth inhibition (GI) (NCI-H460 [3]): inactive

- Papp A→B at 1 h, 10 µM (MDR1 (P-gp), human [21]): 20.8 ×10⁻⁶ cm/s
- Papp B→A at 1 h, 10 µM (MDR1 (P-gp), human [22]): 25.8 ×10⁻⁶ cm/s
- efflux ratio (MDR1 (P-gp), human [23]): 1.2
- efflux ratio (MDR1 (P-gp), human [24]): 1.2
- remaining at 24 h, 5 µM [25]: 0%
- remaining at 24 h, 5 µM [26]: 0%
- remaining at 24 h, 5 µM [27]: 0%
- half-life at 5 µM [28]: 2.55 h
- half-life at 5 µM [29]: 0.4 h
- half-life at 5 µM [30]: 1.52 h
- remaining at 1 h, 1 µM [31]: 65%
- remaining at 1 h, 1 µM [32]: 73%
- remaining at 1 h, 1 µM [33]: 33%
- IC50 (MCF7 [34]): 10 µM
- IC50 (HCT-116 [35]): 0.8 µM
- half-life at 1 µM [36]: 2.23 h
- half-life at 1 µM [37]: 1.73 h
- half-life at 1 µM [38]: 0.567 h
SMILES: ClCCc1cnc(Cl)nc1Cl
- IC50 (NCI-H460 [4]): 3 µM
- Activity (HCT-116 [5]): 2.5%
- Activity (HCT-116 [6]): 8.1%
- Activity (HCT-116 [7]): 33.5%
- Activity (HCT-116 [8]): 7.8%
- Activity (HCT-116 [9]): 48.8%
- Activity (HCT-116 [10]): 14.6%
- Activity (HCT-116 [11]): 17.2%
- Activity (HCT-116 [12]): 77.6%
- Activity (HCT-116 [13]): 1.7%
- Activity (HCT-116 [14]): 8.5%
- Activity (HCT-116 [15]): 41.7%
- Activity (HCT-116 [16]): 24.6%
- Activity (HCT-116 [17]): 31.5%
- Activity (HCT-116 [18]): 14.8%
- Activity (HCT-116 [19]): 26.7%
- Activity (HCT-116 [20]): 60.7%

SMILES: COCn1cc(CCOC(C)=O)c(=O)[nH]c1=O
- growth inhibition (GI) (MCF7 [1]): inactive
- growth inhibition (GI) (HCT-116 [2]): inactive
- growth inhibition (GI) (NCI-H460 [3]): inactive

SMILES: COc1ncc2c(n1)OCC2
- growth inhibition (GI) (MCF7 [1]): inactive
- growth inhibition (GI) (HCT-116 [2]): inactive
- growth inhibition (GI) (NCI-H460 [3]): inactive

SMILES: COCn1c(=O)[nH]cc(CCO)c1=O
- growth inhibition (GI) (MCF7 [1]): inactive
- growth inhibition (GI) (HCT-116 [2]): inactive
- growth inhibition (GI) (NCI-H460 [3]): inactive

SMILES: COCn1cc(CCOC(C)=O)c(=O)n(COC)c1=O
- growth inhibition (GI) (MCF7 [1]): inactive
- growth inhibition (GI) (HCT-116 [2]): inactive
- growth inhibition (GI) (NCI-H460 [3]): inactive

SMILES: COCn1cc(CCO)c(OC)nc1=O
- growth inhibition (GI) (MCF7 [1]): inactive
- growth inhibition (GI) (HCT-116 [2]): inactive
- growth inhibition (GI) (NCI-H460 [3]): inactive

SMILES: COCn1cc(CCF)c(=O)[nH]c1=O
- growth inhibition (GI) (MCF7 [1]): inactive
- growth inhibition (GI) (HCT-116 [2]): inactive
- growth inhibition (GI) (NCI-H460 [3]): inactive

SMILES: COc1ncc(CCO)c(OC)n1
- growth inhibition (GI) (MCF7 [1]): inactive
- growth inhibition (GI) (HCT-116 [2]): inactive
- growth inhibition (GI) (NCI-H460 [3]): inactive

SMILES: COCn1cc(CCO)c(=O)[nH]c1=O
- growth inhibition (GI) (MCF7 [1]): inactive
- growth inhibition (GI) (HCT-116 [2]): inactive
- growth inhibition (GI) (NCI-H460 [3]): inactive
